MIC data for one molecule are collected here from patent US20100234348A1, “COMPOSITIONS AND METHODS FOR POTENTIATING ANTIBIOTIC ACTIVITY” (TRUSTEES OF BOSTON UNIVERSITY, priority 2006, published 2010).

In this test the test system is quinolone resistant strain laboratory S7. The experiment in a line: Growth of quinolone resistant strain S7 with ciprofloxacin and CB101 forms. Format: cell-based. Particulars: Staphylococcus. The procedure: The quinolone resistant strain laboratory S7 was tested for growth in the presence of ciprofloxacin at 0.5 μg/mL (MIC at 1 μg/mL) with 20 μg/mL of CB101 (racemic mixture), the (+) enantiomeric form of CB101 or the (−) enantiomeric form of CB101.

Values after ≈ are worked out from the molar mass of the structure shown.

What is called MIC is the least concentration at which growth counts as inhibited. In turn, `O=C(O)c1cn(C2CC2)c2cc(N3CCNCC3)c(F)cc2c1=O` [ciprofloxacin] displayed a minimum inhibitory concentration (MIC) of 1 µg/mL (≈ 3.02 µM).
